Source: patent US6818621B2, “Osteopontin-derived chemotactic and inhibitory agents and uses therefor” (Children's Medical Center Corporation, priority 1999, dated 2004)
Marks after values point to notes of the source that are not given here. Blank lines part the entries; values can stand above or below the substance they belong to. Where no end group is shown, it is not given here.

Legend:
MDA-MB-231 cells [1] = experiment: Inhibition of OPN induced chemotaxis in the chemotactic chamber assay; assay type: cell-based, human; conditions: for MI inhibitory: Table 4, 100 nmoles of peptide, cells migrating towards OPN in presence of buffer divided by number migrating towards OPN in presence of peptide
Description: (§1) To evaluate the potential of peptide analogues to inhibit OPN induced chemotaxis, 100 nmoles of peptide was added to the lower compartment and the response of these cells to OPN was determined as described. MI(buffer) was calculated by dividing the number of cells migrating in response to peptide by the number of cells migrating in response to buffer. MI(inhibitory) equals the number of cells migrating towards OPN in the presence of buffer divided by the number migrating towards OPN in the presence of peptide.

Caspase 8 = experiment: FLICE/Caspase-8 Fluorometric Protease Assay; assay type: cell-based, human; conditions: 100 nM, 12 hours, MDA-MB-231 cells
Description: (§2) One million MDA-MB-231 cells were incubated with 100 nM of the OPN, LVVDPK (SEQ ID NO:8), Ac-MLDP (SEQ ID NO:23) or Ac-HKDKMLDP (SEQ ID NO:24) in DME containing 10% FBS in a humidified atmosphere of 5% CO2 at […]. After 12 hours, Caspase 8 and the % of apoptotic cells were determined. Caspase was determined by a fluorescent assay using Chemicon's FLICE/Caspase-8 Fluorometric Protease Assay Kit as described by the manufacturers. Apoptosis was determined using TUNEL using the “In situ Cell Death Detection Kit” (Boehringer-Mannheim, Germany).

[2] = system: MDA-MB-231 cells (CD44+ human breast adenocarcinoma cells); experiment: Chemotactic chamber (Boyden) assay, migration through polycarbonate filters; assay type: cell-based; conditions: for MI buffer: cells migrating in response to peptide divided by cells migrating in response to buffer; for mean number of migrating cells per six random high powered fields: Table 2
Description: Each peak was then tested for mediation of chemotaxis or for its ability to inhibit OPN mediated chemotaxis using the chemotactic assay as follows (see e.g., Weber et al. (1996) Science 271:509-512). Briefly, uncoated polycarbonated filters (pore size […] ) were used to separate the upper and lower chambers of chemotactic wells. 1×10^3 MDA-MB-231 cells (CD44^+human breast adenocarcinoma cells) were added to the upper chamber and incubated in the presence or absence of the indicated 50 pmols peptide. After 4 hours, the filters were removed, fixed in methanol arid stained with hematoxylin and eosin. Cells which have responded to the peptide, migrate to various areas of the lower surface and can be counted microscopically. Each data point is reported as the mean number of migrating cells per random high power field.
Peptide 51 was identified as being chemotactic. The peptide was sequenced using a gas-phase sequenator and determined to have the sequence LVLDPK (SEQ ID NO:1). To confirm that chemotaxis was due to this peptide, a 16 amino acid peptide spanning the chemotactic sequence in OPN was synthesized and tested for its chemotactic properties. The resulting peptide, SP64 has the sequence KFHSHKDKLVLDPKSK (SEQ ID NO:2) and containing the chemotactic sequence from residues 9-14. 2×10^4 MDA-MB-231 cells were assayed for chemotactic response to the indicated peptides as described above. Each data point is reported as the mean number of migrating cells per six random high powered fields ± standard error of the mean. Each experiment was repeated four times.
To test the amino acid specificity for chemotactic response several substitutions were created in the chemotactic sequence and the new peptides tested for their ability to induce chemotaxis. Data are expressed as migratory index (cells migrating in response to peptide/cells migration in response to LVLDPK, SEQ ID NO:1).
as §1

[3] = system: Peritoneal macrophages, fibroblasts or osteoblasts; experiment: Apoptosis of non-tumor cells treated with PepM; assay type: cell-based
MDA-MB-231 cells [4] = experiment: Apoptosis by TUNEL (In situ Cell Death Detection Kit); assay type: cell-based, human; conditions: 100 nM, 12 hours; for increase in apoptosis as compared to OPN: TUNEL
Description: as §2

[5] = system: cells recruited into the peritoneum; experiment: In vivo chemotaxis after injection of peptide into the peritoneal cavity, lavage and flow cytometry; parameters: species or system C57 black mice; conditions: coinjected with the chemotactic agent
breast tumor cells = experiment: Nitric oxide production, nitrate in culture supernatants (Griess reagents); assay type: cell-based; conditions: 12 hours after incubation
Description: The production of nitric oxide (NO) by the breast tumor cells was assessed 12 hours after incubation in the presence of pepL by measuring the accumulation of nitrate in culture supernatants. Griess reagents were used as described by Hwang et al. (1993).

[6] = system: cells recruited into the peritoneum; experiment: In vivo chemotaxis after injection of peptide into the peritoneal cavity, lavage and flow cytometry; parameters: species or system C57 black mice; conditions: 25 nmols i.p., 6 hours, normalized to PBS-injected mouse, average of 6 mice
Description: Since the peptide LVLDPK (SEQ ID NO:1) was chemotactic to tumor cells and macrophages in vitro, we tested whether the peptide was chemotactic in vivo. 25 nmols of the peptide were injected into the peritoneal cavity of C57 black mice. After six hours the cells recruited into the peritoneum were recovered by lavage and identified by flow cytometry. Titration of soluble peptides into the peritoneum induces a cellular infiltrate in a dose dependent manner. The induction ratio is the number of cells of a particular lineage recovered from the peritoneum of a peptide-injected mouse (e.g., 6 hours after injection) normalized for each experiment to the number of cells of the same lineage recovered from the peritoneum of a PBS-injected mouse. Cell numbers for PBS-injected mice ranged from […] to 646,000 cells total; 182,300 to 325,000 CD44^+ cells; 224,000 to 496,000 […] cells; 31,300 to 76,000 B220^+ cells; 18,100 to 21,100 CD3^+ cells), representing the induction of macrophages (Mac-1^+), B cells (B220^+), and T cells (CD3^+). Values represent an average of 6 mice.

peritoneal exudate cells = experiment: In vivo cellular migration after intraperitoneal injection of osteopontin, peritoneal exudate flow cytometry; parameters: species or system Mice
Description: Mice were injected intraperitoneally with varying dosages of K7 osteosarcoma-derived osteopontin. All injection volumes were 200 μl. Injections of vehicle alone (PBS) served as negative controls and vehicle plus 20 μg lipopolysaccharide (LPS) injections served as positive controls for elicitation of peritoneal exudates.
Mice were sacrificed by CO2-asphyxiation at varying times following injection. Immediately after sacrifice, peritoneal exudate was recovered by intraperitoneal injection and recovery of 10 mL PBS. The lavage procedure was performed twice on each mouse. Following this, red blood cells were lysed by hypotonic lysis with ACK lysis buffer (0.15 M NH4Cl, 1.0 mM KHCO3, 0.1 mM Na2EDTA, pH 7.4) for 5 minutes at room temperature, and the preparation was washed in DMEM, 5% FBS. Cells were resuspended in DMEM, 5% FBS for fluorescent antibody staining.
Each sample of cells to be analyzed for specific surface markers was suspended in DMEM, 5% FBS at a concentration of 0.2 to 1 million cells in 50 μl. Fluorescence-labeled antibodies were added at 1 μg/1×10^6 cells, and incubated with the cells for 30 minutes at 4° C. Samples were washed twice with 200 μl of PBS following antibody staining and fixed with 500 μl of 2% paraformaldehyde in PBS. Peritoneal exudate cells were analyzed by dual-color flow cytometry for expression of CD44 (PE), CD 11 b (Mac-1, FITC, macrophage marker), B220 (FITC, B-cell marker), and CD3 (FITC, T-cell marker). All antibodies were purchased from PharMingen and flow cytometric analysis was done using a Coulter EPICS flow cytometer. Controls for non-specific binding and single color controls were included.
To further characterize the effects of osteopontin on in vivo cellular migration, a time course experiment was performed using an osteopontin dosage that elicited peak levels of infiltration. The total cellular response to osteopontin administration peaked sharply at 4 to 6 hours. This is likely to be due to a high rate of clearance from the peritoneal cavity.

macrophage = experiment: Inhibition of macrophage recruitment by osteopontin, C5a and fibronectin; conditions: C5a and by fibrorectin

Substance: LVVDPK (OTHER INFORMATION: Description of Artificial Sequence:Synthetic Peptide) [pepA′]
MI inhibitory (MDA-MB-231 cells [1]): 8 | Caspase 8 activity (in words) (Caspase 8): virtually undetectable | MI buffer ([2]; Table 4): 9 | MI ([2]; Table 4, migratory index): 1 | apoptosis (in words) (MDA-MB-231 cells [4]): virtually undetectable

Substance: OPN: osteopontin protein; bone OPN in vitro, K7 osteosarcoma-derived osteopontin in Example 3
induction ratio, Total [6]: 11.3 | induction ratio, Total CD44 [6]: 9.6* | induction ratio, B-lymphocytes ([6]; B220+): 1.2 | induction ratio, T-lymphocytes ([6]; CD3+): 1 | induction ratio, Monocytes ([6]; Mac-1+): 10.4* | number of CD3+ and B220+ cells (peritoneal exudate cells; 6 hours after injection): only marginally elevated | number of Mac-1+ cells in the infiltrate (peritoneal exudate cells; 6 hours after injection, over basal levels): increased fivefold over basal levels | peritoneal cells recovered (peritoneal exudate cells; OPN alone): 1.16 million cells | number of CD44+ Mac1+ cells (peritoneal exudate cells; at a dose around 7 μg): nearly sixfold reduction | dose of peak response of the cellular infiltrate (peritoneal exudate cells; intraperitoneal, 6 hours after injection): around 13 μg | cellular infiltrate (in words) (peritoneal exudate cells; titration into the peritoneum, 6 hours after injection): dose dependent increase | mean number of migrating cells per six random high powered fields ([2]; labelled agent in lower chamber, Ab64 in upper chamber): 36 cells per six random high powered fields | mean number of migrating cells per six random high powered fields ([2]; labelled agent in lower chamber, OPN in upper chamber): 16 cells per six random high powered fields | mean number of migrating cells per six random high powered fields ([2]; labelled agent in lower chamber, PBS in upper chamber, 2×10^4 cells): 214 cells per six random high powered fields | mean number of migrating cells per six random high powered fields ([2]; labelled agent in lower chamber, SP64 in upper chamber): 187 cells per six random high powered fields | mean number of migrating cells per six random high powered fields ([2]; labelled agent in lower chamber, pep 51 in upper chamber): 44 cells per six random high powered fields | mean number of migrating cells per six random high powered fields ([2]; labelled agent in upper chamber, PBS in lower chamber): 23 cells per six random high powered fields | chemotactic response of MDA-MB231 (in words) ([2]; p<0.01, 200 ng of bone OPN): stimulated the chemotactic response

Substance: VLEP (OTHER INFORMATION: Description of Artificial Sequence:Synthetic Peptide) [pepJ′]
inhibition of chemotaxis by peptide (in words) (MDA-MB-231 cells [1]; migratory index against peptide 51): inhibitory for chemotaxis | Migratory Index ([2]; Table 3, cells migrating in response to peptide/cells migration in response to LVLDPK): 0.1 | inhibition of macrophage recruitment (macrophage): inhibits macrophage recruitment

The next lines start with results.

increase In Caspase 8 activity (Caspase 8): ~80%
Substance: Acetyl-HKDKMLDP (Ac-HKDKMLDP) [pepM]
MI inhibitory (MDA-MB-231 cells [1]): 2 | MI buffer ([2]; Table 4): 0.8 | apoptosis of non-tumor cells [3]: did not undergo apoptosis | apoptosis (in words) (MDA-MB-231 cells [4]): activation of apoptosis | increase in apoptosis as compared to OPN (MDA-MB-231 cells [4]): ~120%

increase In Caspase 8 activity (Caspase 8): ~65%
Substance: Acetyl-MLDP (Ac-MLDP) [pepL]
MI inhibitory (MDA-MB-231 cells [1]): 2 | MI buffer ([2]; Table 4): 1 | effect on chemotactic response to OPN of LVLDPK in vivo [5]: totally abolished the chemotactic response | NO production (breast tumor cells): increased NO production | apoptosis (in words) (MDA-MB-231 cells [4]): activation of apoptosis | increase in apoptosis as compared to OPN (MDA-MB-231 cells [4]): 80%
